Test results from ChEMBL document CHEMBL1151615, “Trichothecenes, 1: The synthesis of 4-deoxyverrucarol from verrucarol and diacetoxyscirpenol” (J Nat Prod, 1984).
≈ marks a conversion by molar mass, not a printed value.

What was measured:
[1] = organism: Mus musculus; assay: Skin toxicity in mouse; format: organism-based; details: in vivo
[2] = Toxicity in mouse assessed as 50% inhibition of protein synthesis; format: organism-based; details: in vivo, read-out: Activity

Row | SMILES | MED [1] | IC50 [2]
1 | CC1=C[C@H]2O[C@@H]3CC[C@](C)([C@@]2(CO)CC1)[C@]31CO1 [DEOXYVERRUCAROL] | >= 500 ng | 62.2 µg/mL (≈ 248 µM)
2 | CC(=O)OC[C@]12C[C@H](OC(=O)CC(C)C)C(C)=C[C@H]1O[C@@H]1[C@H](O)[C@@H](OC(C)=O)[C@@]2(C)[C@]12CO2 [T-2 TOXIN] | 50.2 ng | 0.005 µg/mL (≈ 0.0107 µM)
3 | CC1=C[C@H]2O[C@@H]3C[C@@H](O)[C@](C)([C@@]2(CO)CC1)[C@]31CO1 [VERRUCAROL] | >= 500 ng | 15.8 µg/mL (≈ 59.3 µM)
